Test results: patent US11673899B2, “Crystal form of thieno[2,3-c]pyridazine-4(1H)-one compound, preparation method therefor and use thereof” (ZHANGZHOU PIEN TZE HUANG PHARMACEUTICAL CO., LTD., priority 2019, dated 2023)

Tests used:
[1] = tested on: HFD+CCl4-induced NASH mouse model; assay: In vivo pharmacodynamic study in HFD+CCl4-induced NASH mouse model; conditions: HFD+CCl4 mice; 0.5, 1, 3 mg/kg by gavage QD day 0 to day 27; reference I-181 3 mg/kg
Source text: To study the effect of a compound on improving NASH and liver fibrosis in an HFD+CCl4 mouse model, with I-181 as a reference compound.
I-181 is an acetyl-CoA carboxylase inhibitor and is currently undergoing a phase II clinical study on non-alcoholic fatty liver disease (NAFLD). The HFD+CCl4 mouse model used in this study is an animal model that simulates human non-alcoholic fatty liver disease evolving into NASH. High-fat diet leads to fat accumulation and steatosis in liver cells; CCl4 (intraperitoneal injection, twice a week) simulates the “second hit” of liver injury.
The modeling for this experiment included two steps: high-fat diet feeding and CCl4 induction. Firstly, the mice were fed with high-fat diet to induce non-alcoholic fatty liver, and the mice weighing more than (>) 38 g were selected and continuously fed with high-fat diet, accompanied by the intraperitoneal injection of 25% CCl4 ([…], twice a week, for a total of four weeks). The day of starting CCl4 administration was set as day 0, and the time of starting CCl4 administration was set as hour 0. On the day of starting CCl4 administration, the administration by gavage was started, and the administration volume of each group was 5 mL/kg, once a day for 4 weeks (28 days). The injection time of CCl4 should be more than 4 hours apart from the first administration time point of the day. […]

[2] = Stability of crystal form to light, heat and humidity; format: physicochemical; conditions: solid crystal form

Row | Compound | Efficacy in NAS [1] | Efficacy in fibrosis [1] | Stability (light, heat and humidity) [2]
1 | COc1ccccc1[C@H](Cn1nc(C(C)(C)C(=O)O)c(=O)c2c(C)c(-c3ncco3)sc21)OC1CCOCC1 [Compound of formula (I)] | the same efficacy as the reference compound at a higher dose | the same efficacy as the reference compound at a higher dose | –
2 | COc1ccccc1[C@H](Cn1nc(C(C)(C)C(=O)O)c(=O)c2c(C)c(-c3ncco3)sc21)OC1CCOCC1 | – | – | stable, and less affected by light, heat and humidity
